Calls of active or inactive are those of the source. The calls are words filed in the database; no cut-off is given here.
Key:
[1] = Solubility of the compound at 93 uM; format: physicochemical
Plasmodium falciparum [2] = test: Antimalarial activity against chloroquine-sensitive Plasmodium falciparum 3D7 infected in human erythrocytes assessed as parasite growth inhibition after 50 hrs by SYBR Green1 dye-based fluorescence assay; format: functional, organism-based
[3] = Selectivity index, ratio of IC50 for human HepG2 cells to IC50 for chloroquine-sensitive Plasmodium falciparum 3D7; format: toxicity, cell-based; conditions: read-out: Ratio IC50
Plasmodium falciparum [4] = test: Antimalarial activity against chloroquine-resistant Plasmodium falciparum Dd2 infected in human erythrocytes assessed as parasite growth inhibition after 50 hrs by SYBR Green1 dye-based fluorescence assay; format: functional, cell-based; conditions: Dd2, 50 h
Plasmodium falciparum [5] = test: Potency index, ratio of ciprofloxacin IC50 to compound IC50 for chloroquine-sensitive Plasmodium falciparum 3D7 infected in human erythrocytes; format: functional
Plasmodium falciparum [6] = test: Potency index, ratio of ciprofloxacin IC50 to compound IC50 for chloroquine-resistant Plasmodium falciparum Dd2 infected in human erythrocytes; format: functional
HepG2 = test: Cytotoxicity against human HepG2 cells assessed as cell viability after 72 hrs by MTT assay; format: cell-based; conditions: HepG2, 72 h
THP-1 = test: Cytotoxicity against human THP1 cells assessed as cell viability after 72 hrs by MTT assay; format: cell-based; conditions: THP-1, 72 h
[7] = Selectivity index, ratio of IC50 for human THP1 cells to IC50 for chloroquine-sensitive Plasmodium falciparum 3D7; format: toxicity, cell-based, THP-1; conditions: read-out: Ratio IC50
Plasmodium falciparum [8] = test: Antimalarial activity against blood stage form of Plasmodium falciparum assessed as incorporation of [3H]hypoxanthine after 72 hrs by liquid scintillation counting; format: functional, organism-based
[9] = Plasmodium falciparum, 3D7, 50 h, read-out: IC50

Row | SMILES | IC50 (Plasmodium falciparum [2]; [9]) [µM] | Ratio IC50 (Plasmodium falciparum [5]) | Ratio IC50 (Plasmodium falciparum [6]) | also measured
1 | O=C(O)c1cn(Cc2ccc(C(F)(F)F)cc2)c2ccc3nc(-c4ccccc4)c(-c4ccccc4)nc3c2c1=O | – | – | – | solubility [1]: Insoluble; growth inhibition (GI) (Plasmodium falciparum [2]): inactive
2 | O=C(O)c1cn(CC(F)(F)F)c2ccc3nc(-c4ccc(F)cc4)c(-c4ccc(F)cc4)nc3c2c1=O | > 50 | – | – | –
3 | CCOC(=O)c1cn(CC(F)(F)F)c2ccc3nc(-c4ccc(F)cc4)c(-c4ccc(F)cc4)nc3c2c1=O | 3.92 | 5 | 5 | selectivity ratio [3]: 63.8; IC50 (Plasmodium falciparum [4]): 4.6 µM; IC50 (HepG2): 250 µM; IC50 (THP-1): 275 µM; selectivity ratio [7]: 70.2
4 | CCOC(=O)c1cn(Cc2ccc(F)cc2)c2ccc3nc(-c4ccc(F)cc4)c(-c4ccc(F)cc4)nc3c2c1=O | 7.59 | 2 | 2 | selectivity ratio [3]: 26.4; IC50 (Plasmodium falciparum [4]): 7.11 µM; IC50 (HepG2): 200 µM; IC50 (THP-1): 140 µM; selectivity ratio [7]: 18.4
5 | CCOC(=O)c1cnc2ccc3nc(-c4ccccc4)c(-c4ccccc4)nc3c2c1O | 29.8 | – | – | –
6 | CCOC(=O)c1cn(Cc2ccc(C(F)(F)F)cc2)c2ccc3nc(-c4ccccc4)c(-c4ccccc4)nc3c2c1=O | – | 2 | 2 | solubility [1]: Insoluble; IC50 (Plasmodium falciparum [2]): ND(Insoluble)
7 | Cc1c(F)c(N2CCNC(C)C2)cc2c1c(=O)c(C(=O)O)cn2C1CC1 (stereo not drawn) [GREPAFLOXACIN] | – | – | – | IC50 (Plasmodium falciparum [8]): 20 µM
8 | C#CCn1cc(C(=O)OCC)c(=O)c2c3nc(-c4ccc(F)cc4)c(-c4ccc(F)cc4)nc3ccc21 | 18.7 | 2 | 2 | –
9 | CCCCn1cc(C(=O)O)c(=O)c2c3nc(-c4ccccc4)c(-c4ccccc4)nc3ccc21 | – | – | – | solubility [1]: Insoluble; growth inhibition (GI) (Plasmodium falciparum [2]): inactive
10 | CCCCn1cc(C(=O)OCC)c(=O)c2c3nc(-c4ccc(F)cc4)c(-c4ccc(F)cc4)nc3ccc21 | > 50 | 2 | 2 | –
11 | CCOC(=O)C(=CNc1ccc2nc(-c3ccccc3)c(-c3ccccc3)nc2c1)C(=O)OCC | 16 | – | – | IC50 (Plasmodium falciparum [4]): 15.5 µM
12 | CCn1cc(C(=O)O)c(=O)c2c3nc(-c4ccc(F)cc4)c(-c4ccc(F)cc4)nc3ccc21 | > 50 | – | – | –
13 | COc1cccc2c1C(=O)c1c(O)c3c(c(O)c1C2=O)C[C@@](O)(C(=O)CO)C[C@@H]3O[C@H]1C[C@H](N)[C@H](O)[C@H](C)O1 [DOXORUBICIN] | – | – | – | IC50 (HepG2): 0.2 µM; IC50 (THP-1): 0.05 µM
14 | CCCCn1cc(C(=O)OCC)c(=O)c2c3nc(-c4ccccc4)c(-c4ccccc4)nc3ccc21 | 9.17 | 2 | 2 | –
15 | CCOC(=O)c1cn(CC)c2ccc3nc(-c4ccc(F)cc4)c(-c4ccc(F)cc4)nc3c2c1=O | 32.2 | 2 | 2 | –
16 | CCn1cc(C(=O)O)c(=O)c2cc(F)c(N3CCNCC3)nc21 [ENOXACIN] | – | – | – | IC50 (Plasmodium falciparum [8]): 20 µM
17 | CCOC(=O)c1cn(CC)c2ccc3nc(-c4ccccc4)c(-c4ccccc4)nc3c2c1=O | 15.4 | 2 | 2 | IC50 (Plasmodium falciparum [4]): 11.3 µM

Row | SMILES | IC50 (Plasmodium falciparum [2]; [9]) [µM] | Ratio IC50 (Plasmodium falciparum [5]) | Ratio IC50 (Plasmodium falciparum [6]) | also measured
18 | CCOC(=O)c1cn(Cc2ccc(C(F)(F)F)cc2)c2ccc3nc(-c4ccc(F)cc4)c(-c4ccc(F)cc4)nc3c2c1=O | > 50 | 2 | 2 | –
19 | C#CCn1cc(C(=O)O)c(=O)c2c3nc(-c4ccc(F)cc4)c(-c4ccc(F)cc4)nc3ccc21 | > 50 | – | – | –
20 | NC1CCN(c2c(F)cc3c(=O)c(C(=O)O)cn(C4CC4)c3c2Cl)C1 (stereo not drawn) [CLINAFLOXACIN] | – | – | – | IC50 (Plasmodium falciparum [8]): 20 µM
21 | C#CCn1cc(C(=O)OCC)c(=O)c2c3nc(-c4ccccc4)c(-c4ccccc4)nc3ccc21 | – | 2 | 2 | solubility [1]: Insoluble; IC50 (Plasmodium falciparum [2]): ND(Insoluble)
22 | O=C(O)c1cn(Cc2ccc(F)cc2)c2ccc3nc(-c4ccccc4)c(-c4ccccc4)nc3c2c1=O | – | – | – | solubility [1]: Insoluble; growth inhibition (GI) (Plasmodium falciparum [2]): inactive
23 | CCn1cc(C(=O)O)c(=O)c2c3nc(-c4ccccc4)c(-c4ccccc4)nc3ccc21 | – | – | – | solubility [1]: Insoluble; growth inhibition (GI) (Plasmodium falciparum [2]): inactive
24 | CCOC(=O)C(=CNc1ccc2nc(-c3ccc(F)cc3)c(-c3ccc(F)cc3)nc2c1)C(=O)OCC | 21.3 | – | – | –
25 | CCOC(=O)c1cn(CC(F)(F)F)c2ccc3nc(-c4ccccc4)c(-c4ccccc4)nc3c2c1=O | 13.1 | 2 | 2 | –
26 | CCOC(=O)c1cnc2ccc3nc(-c4ccc(F)cc4)c(-c4ccc(F)cc4)nc3c2c1O | 15.7 | – | – | IC50 (Plasmodium falciparum [4]): 26.9 µM
27 | C#CCn1cc(C(=O)O)c(=O)c2c3nc(-c4ccccc4)c(-c4ccccc4)nc3ccc21 | – | – | – | solubility [1]: Insoluble; growth inhibition (GI) (Plasmodium falciparum [2]): inactive
28 | CCCCn1cc(C(=O)O)c(=O)c2c3nc(-c4ccc(F)cc4)c(-c4ccc(F)cc4)nc3ccc21 | 40.4 | – | – | –
29 | O=C(O)c1cn(Cc2ccc(C(F)(F)F)cc2)c2ccc3nc(-c4ccc(F)cc4)c(-c4ccc(F)cc4)nc3c2c1=O | > 50 | – | – | –
30 | O=C(O)c1cn(CC(F)(F)F)c2ccc3nc(-c4ccccc4)c(-c4ccccc4)nc3c2c1=O | – | – | – | solubility [1]: Insoluble; growth inhibition (GI) (Plasmodium falciparum [2]): inactive
31 | O=C(O)c1cn(C2CC2)c2cc(N3CCNCC3)c(F)cc2c1=O [CIPROFLOXACIN] | 23.1 | – | – | IC50 (Plasmodium falciparum [4]): 33.9 µM; IC50 (THP-1): 60.5 µM; IC50 (Plasmodium falciparum [8]): 20 µM; selectivity ratio [7]: 2.61
32 | O=C(O)c1cn(Cc2ccc(F)cc2)c2ccc3nc(-c4ccc(F)cc4)c(-c4ccc(F)cc4)nc3c2c1=O | > 50 | – | – | –
33 | CCOC(=O)c1cn(Cc2ccc(F)cc2)c2ccc3nc(-c4ccccc4)c(-c4ccccc4)nc3c2c1=O | 6.94 | 3.3 | 3.3 | selectivity ratio [3]: 21.6; IC50 (Plasmodium falciparum [4]): 6.27 µM; IC50 (HepG2): 150 µM; IC50 (THP-1): 200 µM; selectivity ratio [7]: 28.8

Reference: ChEMBL document CHEMBL3232776, “Emergence of pyrido quinoxalines as new family of antimalarial agents” (Eur J Med Chem, 2014)
